The numbers were not newly measured in patent US20050020601A1, “Novel pyrazinones as CRF1 receptor antagonists” (Pfizer Inc, priority 2003, published 2005), which cites them from elsewhere.

One data set deals with rats. As to conditions: for effect on the "anxiogenic" effects/actions of CRF: conflict test.
Data set [1] concerns cultured human epidermal keratinocyte cells.

`CNC(=O)c1cc2c(cn1)[nH]c1ccccc12` [FG 7142]: in the data set on rats, the “effect on the "anxiogenic" effects/actions of CRF” value is on record as “enhanced the actions of CRF”.

As to `CCOC(=O)c1ncn2c1CN(C)C(=O)c1cc(F)ccc1-2` [Ro 15-1788], the “effect on the "anxiogenic" effects/actions of CRF” value in the data set with rats is given as “reversed the effects of CRF in a dose-dependent manner”. Further, the behavioral activity alone result in the data set with rats (operant conflict test, compound alone) is “without behavioral activity alone”.

Regarding `CCN(c1nc(C)cc(N2CC=C(c3cccc(F)c3)CC2)n1)c1ccc(C(C)C)cc1SC` [2-[N-(2-methylthio-4-isopropylphenyl)-N-ethylamino]-4-[4-(3-fluorophenyl)-1,2,3,6-tetrahydropyridine-1-yl]-6-methylpyrimidine], the keratinocyte cell proliferation entry in data set [1] is recorded as “keratinocyte cell proliferation promoting effect”.
